# Test results published in US12240854B2, “TRAF 6 inhibitors” (Helmholtz Zentrum München - Deutsches Forschungszentrum für …, priority 2018, dated 2025).
# “Also recorded” adds a separate entry of the source.
# Key:
# [1] = test system: p-IκBα (Ser32/36) in MEF cells; test: ALPHASurefire p-IκBα / total IκBα in MEF cells; type: cell-based, mouse; settings: IL-1β
# Description: In order to detect protein levels of p-IκBα (Ser32/36) as well as total IκBa, 1×10^4 MEF cells were seeded in 96-well plates, treated with compound for 6 hours and stimulated with 1 ng/ml IL-1β for 7 minutes. The p-IκBα and total IκBα protein levels were analyzed using the ALPHASurefire kits (PerkinElmer) following the manufacturer's instruction. The general 2-plate protocol was conducted.
# [2] = biological target: T1, E6AP (Homo sapiens, UniProt Q05086); test: In vitro ubiquitination assay, E6AP ubiquitin ligase kit; type: biochemical
# T1 construct: purchased Boston Biochem
# Description: (§1) For analysis of cIAP1, MDM2, TRIM63, RNF4, ITCH and E6AP mediated poly-ubiquitination, the respective ubiquitin ligase kit from Boston Biochem (K-102, K-260, K-200B, K-220, K-240 and K-270) was used. Here, reaction buffer, E1, E2 and E3 enzyme (and p53 substrate in case of MDM2) were mixed and pre-incubated with compound or DMSO for 5 minutes at room temperature before adding Mg^2+-ATP and mono-ubiquitin for reaction start. Ubiquitination was visualized by Western Blot analyses.
# [3] = test system: BJAB (GCB DLBCL); test: Cell viability in DLBCL, BJAB; type: cell-based; settings: 30 μM, 9 days
# Description: To determine the effects of C25-140 on MYD88-dependent ABC-DLBCL, we chose the HBL1 (ABC-DLBCL-MYD88 L265P), U2932 (ABC DLBCL-MYD88 wt) and BJAB (GCB DLBCL) cell lines. 1×10^6 cells of each cell line was seeded in 5 ml and treated with 30 μM compound C25-140 (compound 3) or DMSO. The entire experiment was carried out for 9 days. Every day 500 μl were taken and viable cell number was acquired using the ViCEII cell counter (Beckmann Coulter). At days 4 and 8 of the experiment the volume was again adjusted to 5 ml and samples were supplemented with 30 μM compound C25-140 or DMSO. This process was necessary to ensure linear proliferation of DMSO treated cells. All curves of C25-140 treated samples were referred to the corresponding DMSO treated controls.
# [4] = test system: IKK kinase activity in MEF cells; test: IKK kinase assay in MEF cells; type: cell-based, mouse
# Description: For MEF cells, 5.5×10^5 cells were seeded, then treated with compound for 6 hours and eventually stimulated with IL-1β or TNFα for 8 minutes. 1×10^6 Jurkat T-cells were treated with compound for 6 hours and finally stimulated with PMA (400 ng/ml) and lonomycin (600 ng/ml) for 8 minutes. After cell lysis in Co-IP lysis buffer (150 mM NaCl; 25 mM Hepes (pH 7.5); 0.2% NP-40; 1 mM Glycerol; 10 mM NaF; 8 mM β-Glycerophosphat; 1 mM DTT; 300 μM Sodium-vanadate; complete protease inhibitor), input samples were taken and the supernatant was then incubated with 6 μL IKKγ antibody FL-419 (Santa Cruz Biotechnology). Upon incubation with Protein-G-Sepharose beads (GE Healthcare), beads were washed in Co-IP wash buffer (150 mM NaCl; 25 mM Hepes (pH 7.5); 0.2% NP-40; 1 mM Glycerol) and transferred into kinase reaction buffer ([…] HEPES pH7.9; 10 mM MgCl2; 20 μM ATP; 20 mM β-Glycerophosphat; 200 μM Sodium-Vanadate; 1 mM DTT) supplemented with […] GST-IκBα (1-53) and 0.5 μL ^32P-γ-ATP. After 30 minutes incubation at 37° C., reaction was stopped and analyzed by autoradiography as well as Western Blot after separation on SDS-PAGE.
# [5] = biological target: T2, TRAF6 (Homo sapiens, UniProt Q9Y4K3); test: In vitro ubiquitination assay (Western blot), TRAF6 with Ubc13/Uev1a; type: biochemical
# T2 construct: GST (N, cleaved yes); made in house; host or cells: E. coli BL21 codon plus RIPL (TRAF6); E1, E2 complex and ubiquitin from Boston Biochem
# Description: The ability of TRAF6 to form K63-linked poly-ubiquitin chains in conjunction with Ubc13 was analyzed after compound treatment. Therefore, untagged TRAF6WT and TRAF6D57K, respectively were recombinantly purified. 0.125 μM of TRAF6 protein was pre-incubated with DMSO or compound in a total volume of 100 μL in K63 assay buffer ([…] Tris —HCl pH 7.6; […] MgCL2; […] creatine phosphate; 0.3 U/mL inorganic pyrophosphatase; 0.3 U/mL creatine phosphokinase) for 30 minutes at room temperature. Small aliquots for input samples were taken. A master mix containing 0.01 μM E1-activating enzyme (UBE1) (Boston Biochem), 0.2 μM E2-conjugating enzyme complex (Ubc13/Uev1a) (Boston Biochem), 1 mM ZnCl2, 2 mM ATP und 4 μM mono-ubiquitin (Boston Biochem) was added to the TRAF6 protein and the reaction mixture was incubated for 120 minutes at 37° C. The reaction was stopped by adding 4×SDS loading buffer and boiling at 95° C. for 5 minutes. The input samples were analyzed using the Pierce Silver Stain Kit (Thermo Fisher Scientific). Ubiquitination was detected in Western Blot analysis using an ubiquitin antibody.
# [6] = test system: TRAF6 auto-ubiquitination in MEF cells; test: Immunoprecipitation of TRAF6 for endogenous ubiquitination, MEF cells; type: cell-based, mouse
# Description: 2.5×10^6 MEF cells were seeded, treated with compound for 6 hours and stimulated with IL-1β (3.5 ng/mL) for 10 minutes. Cells were lysed in Co-IP lysis buffer containing 1% SDS to eliminate all cellular interactions. After cell lysis and removal of input samples, the samples were diluted to 0.1% SDS and incubated with 5 μL TRAF6 antibody EP591Y (Abcam) and immunoprecipitated with Protein-G-Sepharose beads. After washing of the beads in Co-IP wash buffer, TRAF6 protein was eluted and levels of TRAF6 ubiquitination were detected by Western Blot analysis.
# [7] = biological target: T3, MDM2 (Homo sapiens, UniProt Q00987); test: In vitro ubiquitination assay, MDM2 ubiquitin ligase kit (p53 substrate); type: biochemical; settings: K48 chain formation
# T3 construct: purchased Boston Biochem
# Description: as §1
# [8] = Pharmacokinetic studies (IV, PO, IP); type: in vivo
# Description: (§2) All ADME (plasma stability, plasma protein binding, microsomal stability, Log D, Caco-2 assay, CYP450 inhibition and hERG predictor assay) as well as pharmacokinetic studies (Tmax, Cmax, AUC0-240min, Mean Residence Time, Elimination half life, Elimination rate constant, Volume of Distribution and Clearance) of C25-140 (compound 3) were conducted by Bienta Enamine Biology Services of Bienta/Enamine Ltd.
# The inventors also tested the pharmacokinetics (PK) of C25-140 after intravenous (IV), peroral (PO) and intraperitoneal (IP) injection of each 10 mg/kg compound. All the analyzed data are summarized in FIG. 9B and the concentration/time-course graph for IP administration is shown in FIG. 9C.
# [9] = test system: Caco-2; test: ADME: Caco-2 assay; type: in vitro ADME
# Description: as §2
# T3 sequence (Q00987 whole entry): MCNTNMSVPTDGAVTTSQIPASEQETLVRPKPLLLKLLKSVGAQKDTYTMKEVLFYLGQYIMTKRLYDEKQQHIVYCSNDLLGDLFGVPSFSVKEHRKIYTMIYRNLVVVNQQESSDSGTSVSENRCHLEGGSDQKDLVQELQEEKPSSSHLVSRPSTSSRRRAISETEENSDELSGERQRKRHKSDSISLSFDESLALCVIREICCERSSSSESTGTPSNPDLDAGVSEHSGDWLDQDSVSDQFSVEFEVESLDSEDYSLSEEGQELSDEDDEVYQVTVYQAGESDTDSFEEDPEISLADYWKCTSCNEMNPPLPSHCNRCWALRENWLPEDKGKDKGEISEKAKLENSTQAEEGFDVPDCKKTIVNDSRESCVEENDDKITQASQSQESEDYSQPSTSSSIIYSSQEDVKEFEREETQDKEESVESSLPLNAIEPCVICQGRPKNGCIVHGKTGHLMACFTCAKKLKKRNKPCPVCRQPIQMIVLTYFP
# T2 sequence (Q9Y4K3 with tags, fused parts or gaps): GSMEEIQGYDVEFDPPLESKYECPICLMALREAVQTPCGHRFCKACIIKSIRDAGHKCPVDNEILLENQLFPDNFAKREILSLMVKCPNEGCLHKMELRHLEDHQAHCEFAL
# T1 sequence (Q05086 whole entry): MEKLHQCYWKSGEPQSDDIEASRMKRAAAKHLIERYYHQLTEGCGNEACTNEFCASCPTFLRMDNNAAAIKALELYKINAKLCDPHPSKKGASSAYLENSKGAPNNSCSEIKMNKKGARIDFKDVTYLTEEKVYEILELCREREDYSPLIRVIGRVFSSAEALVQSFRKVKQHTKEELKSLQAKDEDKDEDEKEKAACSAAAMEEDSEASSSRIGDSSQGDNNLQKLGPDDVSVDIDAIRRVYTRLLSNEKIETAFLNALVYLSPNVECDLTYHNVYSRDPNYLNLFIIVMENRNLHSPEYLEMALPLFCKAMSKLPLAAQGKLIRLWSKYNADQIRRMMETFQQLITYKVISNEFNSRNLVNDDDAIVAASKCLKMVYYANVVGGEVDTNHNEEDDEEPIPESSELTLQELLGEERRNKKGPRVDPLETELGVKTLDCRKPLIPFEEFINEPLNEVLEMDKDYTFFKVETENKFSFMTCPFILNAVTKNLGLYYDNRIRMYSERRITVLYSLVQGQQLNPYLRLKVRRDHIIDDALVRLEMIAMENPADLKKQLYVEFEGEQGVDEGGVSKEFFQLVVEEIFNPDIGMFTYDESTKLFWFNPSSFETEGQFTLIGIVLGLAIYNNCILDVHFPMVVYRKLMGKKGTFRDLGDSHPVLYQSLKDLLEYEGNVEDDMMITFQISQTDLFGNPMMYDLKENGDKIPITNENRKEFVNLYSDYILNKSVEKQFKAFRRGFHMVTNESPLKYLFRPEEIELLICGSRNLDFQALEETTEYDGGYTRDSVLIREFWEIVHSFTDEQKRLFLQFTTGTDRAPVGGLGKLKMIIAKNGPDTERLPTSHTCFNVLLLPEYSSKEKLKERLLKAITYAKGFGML
smiles,measurement,setting,value
"Cc1nn(-c2ccc3nnc(C)n3n2)c(C)c1CCC(=O)N1CCC(Cc2ccccc2)CC1 [Example C25-140, 1-(4-Benzylpiperidin-1-yl)-3-(3,5-dimethyl-1-(3-methyl-[1,2,4]-triazolo-[4,3-b]-pyridazin-6-yl)-1H-pyrazol-4-yl)-propan-1-one]","activity in cell-based ALPHASurefire (NF-κB activation, p-IκBα)",[1],improved inhibitory activity; also recorded: more active
same,S5A ubiquitination by E6AP,[2],not influenced; also recorded: not affected
same,viability of GCB DLBCL,[3],did not show any difference in viability; also recorded: not affected
same,"IKK kinase activity, phosphorylation of IκBα",[4]; IL-1β stimulation,decreased IKK kinase activity; also recorded: decreased phosphorylation of IκBα
same,"IKK kinase activity, phosphorylation of IκBα",[4]; TNFα stimulation,also affects
same,ability of TRAF6 and Ubc13 to form free poly-ubiquitin chains,[5],dose-dependently diminished TRAF6 E3 ligase activity; also recorded: dose-dependently impairs
same,IL-1β-induced auto-ubiquitination of TRAF6,[6],reduced TRAF6 auto-ubiquitination
same,p53 ubiquitination by MDM2,[7],not influenced; also recorded: not affected
same,adverse effects on animals during the PK studies,"[8]; 10 mg/kg IV, PO, IP",no obvious adverse effects
same,in vivo half life (in words),"[8]; IV, PO, IP",moderate in vivo half life
same,initial distribution phase (in words),"[8]; IV, PO, IP",rapid initial distribution phase
same,bioavailability (in words),[8]; in vivo,good bioavailability
same,Caco-2 permeability,[9],good penetration of the Caco-2 layer
